Read-outs that look alike come from different tables or passages of the source.
Tests used:
[1] = cited from earlier work; for CD4+ and CD8+ Treg responses in vivo / autoreactive Th1 and Th17 cells in vivo: in vivo administration; for disease progression in mouse models of type 1 diabetes, multiple sclerosis, and rheumatoid arthritis / inflammation in a mouse model of type 2 diabetes: in vivo
[2] = rodent models of acute lung injury; cited from earlier work
[3] = cited from earlier work
[4] = room temperature; cited from earlier work
SARS-CoV-2 [5] = type: in vivo, K18-hACE2 mice; conditions: for mice that died during the 7-day observation period: control 3/5 died
SARS-CoV-2 [6] = conditions: cited from earlier work
[7] = system: anti-CD3-activated human PBMC; conditions: cited from earlier work
MHV-1 = MHV-1 infected A/J mice given GABA-R agonist in drinking water; type: in vivo; conditions: for body weight loss vs. plain water (FIG. 4A) / death rate vs. plain water (FIG. 4C) / disease (illness) scores vs. plain water (FIG. 4B) / lung coefficient index vs. plain water (FIG. 4D): Example 2, in water: GABA 2 mg/mL, homotaurine 0.25 mg/mL, baclofen 0.25 mg/mL; for mice that died up to day 14 post-infection: control 3/9 survived; for average body weight loss by day 6: control lost 23%
[8] = biological target: SARS-CoV-2 binding to its cellular receptor (UniProt P0DTC2+Q9BYF1); conditions: NIH core screening facility data; cited from earlier work
[9] = phase 1b oral dosing study; cited from earlier work
[10] = large long-term phase III clinical trial; cited from earlier work
[11] = 0.2 mg/mL p=0.049, 20 mg/mL p=0.174, log-rank test
[12] = GABA 20 mg/ml in water, from 3 days post-infection
[13] = GABA 20 mg/ml in water, starting immediately after MHV-1 inoculation

SMILES: NCCCC(=O)O [GABA, gamma-aminobutyric acid]
- CD4+ and CD8+ Treg responses in vivo [1]: promoting
- autoreactive Th1 and Th17 cells in vivo [1]: inhibits
- disease progression in mouse models of type 1 diabetes, multiple sclerosis, and rheumatoid arthritis [1]: inhibits disease progression
- inflammation in a mouse model of type 2 diabetes [1]: limits inflammation
- inflammation, alveolar fluid clearance and lung functional recovery [2]: reduce inflammation and improve alveolar fluid clearance and lung functional recovery
- clinical benefit (ability to reduce seizures) ([3]; hundreds of epilepsy patients): no clinical benefit
- adverse effects ([3]; long-term studies in epilepsy patients): no adverse effects
- stability [4]: stable at room temperature
- death rates vs. plain water (SARS-CoV-2 [5]; [11]): reduced
- survival following SARS-CoV2 infection vs. control (FIG. 5) (SARS-CoV-2 [5]; [11]): increased
- mice that died during the 7-day observation period (SARS-CoV-2 [5]; GABA 0.2 mg/mL in water, p<0.05): none
- mice that died during the 7-day observation period (SARS-CoV-2 [5]; GABA 20 mg/ml in water, p=0.174): 1/5
- viral N1 and N2 transcripts in the lungs (RT-qPCR) vs. control (SARS-CoV-2 [5]; lungs harvested on days 6-7, data not shown): tended to be lower
- interference with SARS-CoV-2 replication (SARS-CoV-2 [6]; NIH core screening facility data): did not interfere
- effect on SARS infection or replication (SARS-CoV-2 [6]; NIH drug screening program): no effect
- IL-6, CXCL10/IP-10, CCL4, CCL20, and MCP-3 production [7]: inhibits
- body weight loss vs. plain water (FIG. 4A) (MHV-1): significantly reduced
- death rate vs. plain water (FIG. 4C) (MHV-1): significantly reduced
- disease (illness) scores vs. plain water (FIG. 4B) (MHV-1): significantly reduced
- body weight loss vs. control (FIG. 1A) (MHV-1; GABA0 and GABA3 vs. control, p<0.0001): reduced
- illness scores vs. control (FIG. 2) (MHV-1; GABA0 and GABA3 vs. control, p<0.001): reduced
- survival following MHV-1 infection vs. control (FIG. 1B) (MHV-1; GABA0 p=0.002, GABA3 p=0.001, log rank test): increased
- highest average illness score (scale 0-5) (MHV-1; GABA 20 mg/ml in water immediately after inoculation, day 7 post-infection): 1.6
- body weight at 14 days post-infection, % of starting weight (MHV-1; [12]): 90%
- maximum mean illness score (scale 0-5) (MHV-1; [12]): 2.5
- mice that died up to day 14 post-infection (MHV-1; GABA 20 mg/ml in water, from 3 days post-infection, death on day 9): 1/9
- average body weight loss by day 6 (MHV-1; GABA 20 mg/ml in water, given from three days after infection): 17%
- average body weight loss by day 6 (MHV-1; GABA 20 mg/ml in water, given immediately after MHV-1 infection): 11%
- body weight below starting weight 14 days post-infection (MHV-1; [13]): 7%
- mice that died up to day 14 post-infection (MHV-1; [13]): none
- interference with SARS-CoV-2 interaction with its cellular receptor [8]: did not interfere
- safety [9]: safe

SMILES: NCCCS(=O)(=O)O [homotaurine]
- CD4+ and CD8+ Treg responses in vivo [1]: promoting
- autoreactive Th1 and Th17 cells in vivo [1]: inhibits
- disease progression in mouse models of type 1 diabetes, multiple sclerosis, and rheumatoid arthritis [1]: inhibits disease progression
- inflammation in a mouse model of type 2 diabetes [1]: limits inflammation
- efficacy in Alzheimer's disease [10]: not effective
- safety [10]: excellent safety record
- stability [4]: stable at room temperature
- body weight loss vs. plain water (FIG. 4A) (MHV-1): significantly reduced
- death rate vs. plain water (FIG. 4C) (MHV-1): significantly reduced
- disease (illness) scores vs. plain water (FIG. 4B) (MHV-1): significantly reduced
- lung coefficient index vs. plain water (FIG. 4D) (MHV-1): significantly reduced

SMILES: NCC(CC(=O)O)c1ccc(Cl)cc1 (centres unmarked) [baclofen]
- body weight loss vs. plain water (FIG. 4A) (MHV-1): did not significantly decrease
- death rate vs. plain water (FIG. 4C) (MHV-1): did not significantly decrease
- disease (illness) scores vs. plain water (FIG. 4B) (MHV-1): slight but significant ability to reduce
- lung coefficient index vs. plain water (FIG. 4D) (MHV-1): did not significantly decrease
